These results are taken from publication PMC8128165, “Effect of amino acids and amines on the activity of the recombinant ι-carbonic anhydrase from the Gram-negative bacterium Burkholderia territorii” (Journal of Enzyme Inhibition and Medicinal Chemistry, 2021).

The test system of this assay is BteCAι. Put plainly: stopped-flow CO2 hydration assay (activation). The following applies: activation constant (not an association constant); CO2 substrate; 10 mM HEPES pH 7.5, 0.1 M NaClO4; 25 °C; activator. It is filed as biochemical, Burkholderia territorii. The text has this:
stopped-flow CO2 hydration assay (activation) on BteCAι
Turning to `N[C@H](Cc1ccccc1)C(=O)O` [compound 4, D-Phe], the “KA (μM)* / BteCAι^b” value came out at 9.4 µM.
Take `N[C@H](Cc1c[nH]cn1)C(=O)O` [compound 2, D-His]: the “KA (μM)* / BteCAι^b” value was 6.2 µM.
The same measure for `N[C@H](CCC(=O)O)C(=O)O` [compound 23, D-Glu]: 8.5 µM.
For the molecule `CNC[C@H](O)c1ccc(O)c(O)c1` [compound 19, L-Adrenaline], the “KA (μM)* / BteCAι^b” value is reported as 9.7 µM.
As for `NCCN1CCNCC1` [compound 17, 1-(2-Aminoethyl)-piperazine], the “KA (μM)* / BteCAι^b” value amounted to 3.9 µM.
The figure for `N[C@H](Cc1c[nH]c2ccccc12)C(=O)O` [compound 8, D-Trp] is 6.1 µM; for `N[C@@H](Cc1cnc[nH]1)C(=O)O` [compound 1, L-His] it is 8.6 µM.
The figure for `NCCc1c[nH]cn1` [compound 12, Histamine] is 6.0 µM; for `N[C@H](Cc1ccc(O)c(O)c1)C(=O)O` [compound 6, D-DOPA] it is 11.7 µM.
The figure for `NC(=O)CC[C@H](N)C(=O)O` [compound 24, L-Gln] is 5.8 µM; for `NCCc1ccc(O)c(O)c1` [compound 13, Dopamine] it is 8.7 µM.
On to `NCCN1CCOCC1` [compound 18, 4-(2-Aminoethyl)-morpholine], for which the “KA (μM)* / BteCAι^b” value came to 12.0 µM.
The figure for `N[C@@H](Cc1c[nH]c2ccccc12)C(=O)O` [compound 7, L-Trp] is 10.2 µM; for `N[C@@H](CC(=O)O)C(=O)O` [compound 21, L-Asp] it is 8.4 µM; for `Nc1ccc(C[C@H](N)C(=O)O)cc1` [compound 11, 4-H2N-L-Phe] it is 6.9 µM.
As to `NCCc1c[nH]c2ccc(O)cc12` [compound 14, Serotonin], the “KA (μM)* / BteCAι^b” value was found to be 13.3 µM.
The figure for `N[C@@H](Cc1ccc(O)c(O)c1)C(=O)O` [compound 5, L-DOPA] is 4.3 µM; for `N[C@@H](Cc1ccc(O)cc1)C(=O)O` [compound 9, L-Tyr] it is 8.0 µM; for `N[C@H](Cc1ccc(O)cc1)C(=O)O` [compound 10, D-Tyr] it is 7.3 µM.
